{"source": "paper PMC7377239", "about": "“Cardiovascular Effects of Polychlorinated Biphenyls and Their Major Metabolites” (Environmental Health Perspectives, 2020)", "key": {"[1]": {"system": "iCell endothelial cells (human iPSC-derived ECs)", "test": "High-content imaging cytotoxicity in iCell endothelial cells, 24 h", "format": "cell-based", "conditions": "Homo sapiens, Endothelial cell, iPSC-EC, 24 hr; for viability at 0.1 µM / activity at 0.1 µM: 0.10 µM; for minimal effective concentration: top concentration 100.00 µM", "method": "The culture conditions of iCell®-endothelial cells were as reported elsewhere ([Iwata et al. 2017]). Briefly, T75 flasks were coated with a fibronectin solution ( 3 μg/cm^2 ) followed by incubation for 1–2 h. Cells were thawed for 3 min in a 37°C water bath. Thawed cells were added to maintenance medium made of VascuLife VEGF Medium Complete Kit, excluding the supplied FBS, and iCell® Endothelial Cells Medium Supplement. The final formulation of the maintenance medium is detailed in ([Iwata et al. 2017]). The aliquoted fibronectin solution was aspirated from the T75 flasks, and cells were seeded at 1.0×10^4 cells/cm^2 . Cells were maintained at 37°C and 5% CO2 with media changes occurring every 2 d and passaged every 3–4 d using TrypLE™ Express. All experiments were conducted on cells between passages 1 and 5.\n(§1) Cytotoxicity was assessed in parallel experiments. For iCell®-endothelial cells, 384-well plates were coated with a 30μg/mL fibronectin solution ( 10μL/well ) and incubated for 2 h at RT. iCell®-endothelial cells were dissociated with TrypLE™ Express and prepared into a solution to achieve 750 cells per well and 50μL of total volume. The fibronectin solution was removed from the 384-well plate, and cells were plated. For HUVECs, similar dissociation and the same cell density were used for plating with the exclusion of the fibronectin solution. Cells were incubated at 37°C and 5% CO2 until a monolayer was formed, typically 3–5 d. 2×PCB plates were created with the requisite maintenance medium. Before treatment, the medium in the wells was exchanged to 25μL/well of fresh maintenance medium. 2×PCB chemical solutions ( […] ) were added. After 24 h incubation at 37°C and 5% CO2 , cells were stained with Hoechst 33342, MitoTracker™ Orange, and calcein AM for 20 min before replacing the staining media with FluoroBright DMEM. Cell culture plates were imaged using the ImageXpress® Micro Confocal high-content imaging system (Molecular Devices). Images were acquired at 10× magnification with DAPI, TRITC, or FITC filter (Hoechst 33342, MitoTracker™, or calcein AM, respectively). The multiwavelength cell scoring applications module in MetaXpress™ (Molecular Devices) was used to analyze the images.\n(§2) Phenotypic responses were quantitatively assessed using concentration–response modeling as detailed elsewhere ([Sirenko et al. 2017]). Briefly, phenotypic readouts were normalized to vehicle controls and fit to a four-parameter logistic model in R studio software (version 3.1.1; R Development Core Team). Following EPA guidance on dose–response modeling, a cutoff of one standard deviation across means of vehicle control (i.e., 0.5% vol/vol DMSO in cell culture media) wells was applied to determine the point-of-departure (POD) values ([U.S. EPA 2012]). In the absence of a concentration–response, the highest tested concentration (i.e., 100μM ) was assigned as “no observable adverse effect level.” The concentration–response assessment R script, as well as templates for vehicle and concentration–response data, are available as a supplement to Sirenko et al. ([2017]). The ability of physicochemical properties to predict differences in PODs were evaluated by multiregression and mixed-effects modeling using R."}, "[2]": {"system": "HUVECs", "test": "High-content imaging cytotoxicity in HUVECs, 24 h", "format": "cell-based, human", "conditions": "Homo sapiens, HUVEC, 24 h, HUVECs; for viability at 0.01 µM / activity at 0.01 µM / viability at 0.1 µM / activity at 0.1 µM / viability at 1 µM / activity at 1 µM / viability at 10 µM / activity at 10 µM / viability at 100 µM / activity at 100 µM: 0.00 µM = 100.00; for viability at 0.1 µM / activity at 0.1 µM: 0.10 µM; for minimal effective concentration: top concentration 100.00 µM", "method": "Similar to the cultivation of iCell®-endothelial cells, HUVEC maintenance and experimentation are detailed elsewhere ([Iwata et al. 2017]). Briefly, HUVECs were thawed, seeded, and grown in T75 tissue culture flasks in Medium 199 with EGM™-2 BulletKits™. HUVECs were incubated at regular cell culture conditions, 37°C and 5% CO2 , and passaged every 2–3 d using TrypLE™ Express. To ensure adequate endothelial function, experiments were performed with cells between passages 1 and 5.\nas §1, §2"}, "[3]": {"conditions": "0.00 µM control = 100.00, read-out: endo.cyto.24hr"}, "[4]": {"conditions": "0.00 µM control = 100.00, read-out: endo.mito.24hr"}, "[5]": {"conditions": "0.00 µM control = 100.00, read-out: endo.mitoint.24hr"}, "[6]": {"conditions": "0.00 µM control = 100.00, read-out: endo.nma.24hr"}, "[7]": {"conditions": "0.00 µM control = 100.00, read-out: endo.tc.24hrs"}, "[8]": {"conditions": "24 hr, read-out: huvec.cyto.24hr"}, "[9]": {"conditions": "24 hr, read-out: huvec.mito.24hr"}, "[10]": {"conditions": "24 hr, read-out: huvec.mitoint.24hr"}, "[11]": {"conditions": "24 hr, read-out: huvec.nma.24hr"}, "[12]": {"conditions": "24 hrs, read-out: huvec.tc.24hrs"}}, "note": "Read-outs that look alike come from different tables or passages of the source."}
{"smiles": "Oc1ccccc1-c1ccc(Cl)cc1", "note": "[2'-OH PCB3]", "values": [{"measurement": "viability at 0.01 µM", "setting": "[1]; [3]", "value": 99.2, "unit": "%"}, {"measurement": "activity at 0.01 µM", "setting": "[1]; [4]", "value": 99.4, "unit": "%"}, {"measurement": "activity at 0.01 µM", "setting": "[1]; [5]", "value": 117, "unit": "%"}, {"measurement": "activity at 0.01 µM", "setting": "[1]; [6]", "value": 98.3, "unit": "%"}, {"measurement": "viability at 0.01 µM", "setting": "[1]; [7]", "value": 99.2, "unit": "%"}, {"measurement": "viability at 0.1 µM", "setting": "[1]; [3]", "value": 96.5, "unit": "%"}, {"measurement": "activity at 0.1 µM", "setting": "[1]; [4]", "value": 97, "unit": "%"}, {"measurement": "activity at 0.1 µM", "setting": "[1]; [5]", "value": 101, "unit": "%"}, {"measurement": "activity at 0.1 µM", "setting": "[1]; [6]", "value": 98.8, "unit": "%"}, {"measurement": "viability at 0.1 µM", "setting": "[1]; [7]", "value": 96.5, "unit": "%"}, {"measurement": "viability at 1 µM", "setting": "[1]; [3]", "value": 100, "unit": "%"}, {"measurement": "activity at 1 µM", "setting": "[1]; [4]", "value": 100, "unit": "%"}, {"measurement": "activity at 1 µM", "setting": "[1]; [5]", "value": 108, "unit": "%"}, {"measurement": "activity at 1 µM", "setting": "[1]; [6]", "value": 96.4, "unit": "%"}, {"measurement": "viability at 1 µM", "setting": "[1]; [7]", "value": 100, "unit": "%"}, {"measurement": "viability at 10 µM", "setting": "[1]; [3]", "value": 103, "unit": "%"}, {"measurement": "activity at 10 µM", "setting": "[1]; [4]", "value": 103, "unit": "%"}, {"measurement": "activity at 10 µM", "setting": "[1]; [5]", "value": 124, "unit": "%"}, {"measurement": "activity at 10 µM", "setting": "[1]; [6]", "value": 97, "unit": "%"}, {"measurement": "viability at 10 µM", "setting": "[1]; [7]", "value": 103, "unit": "%"}, {"measurement": "viability at 100 µM", "setting": "[1]; [3]", "value": 57.8, "unit": "%"}, {"measurement": "activity at 100 µM", "setting": "[1]; [4]", "value": 61.3, "unit": "%"}, {"measurement": "activity at 100 µM", "setting": "[1]; [5]", "value": 87.3, "unit": "%"}, {"measurement": "activity at 100 µM", "setting": "[1]; [6]", "value": 89.5, "unit": "%"}, {"measurement": "viability at 100 µM", "setting": "[1]; [7]", "value": 87, "unit": "%"}, {"measurement": "minimal effective concentration", "setting": "[1]; read-out: endo.cyto.24hr POD", "value": 44.3, "unit": "µM"}, {"measurement": "minimal effective concentration", "setting": "[1]; read-out: endo.mito.24hr POD", "value": 44.3, "unit": "µM"}, {"measurement": "minimal effective concentration", "setting": "[1]; read-out: endo.mitoint.24hr POD", "value": 100, "unit": "µM"}, {"measurement": "minimal effective concentration", "setting": "[1]; read-out: endo.nma.24hr POD", "value": 1.82, "unit": "µM"}, {"measurement": "minimal effective concentration", "setting": "[1]; read-out: endo.tc.24hrs POD", "value": 68.2, "unit": "µM"}, {"measurement": "viability at 0.01 µM", "setting": "[2]; [8]", "value": 88.2, "unit": "%"}, {"measurement": "activity at 0.01 µM", "setting": "[2]; [9]", "value": 87.7, "unit": "%"}, {"measurement": "activity at 0.01 µM", "setting": "[2]; [10]", "value": 94.4, "unit": "%"}, {"measurement": "activity at 0.01 µM", "setting": "[2]; [11]", "value": 93.4, "unit": "%"}, {"measurement": "viability at 0.1 µM", "setting": "[2]; [8]", "value": 84.3, "unit": "%"}, {"measurement": "activity at 0.1 µM", "setting": "[2]; [9]", "value": 84, "unit": "%"}, {"measurement": "activity at 0.1 µM", "setting": "[2]; [10]", "value": 125, "unit": "%"}, {"measurement": "activity at 0.1 µM", "setting": "[2]; [11]", "value": 97.1, "unit": "%"}, {"measurement": "viability at 1 µM", "setting": "[2]; [8]", "value": 93, "unit": "%"}, {"measurement": "activity at 1 µM", "setting": "[2]; [9]", "value": 92.5, "unit": "%"}, {"measurement": "activity at 1 µM", "setting": "[2]; [10]", "value": 107, "unit": "%"}, {"measurement": "activity at 1 µM", "setting": "[2]; [11]", "value": 95.6, "unit": "%"}, {"measurement": "viability at 10 µM", "setting": "[2]; [8]", "value": 90.2, "unit": "%"}, {"measurement": "activity at 10 µM", "setting": "[2]; [9]", "value": 88.2, "unit": "%"}, {"measurement": "activity at 10 µM", "setting": "[2]; [10]", "value": 104, "unit": "%"}, {"measurement": "activity at 10 µM", "setting": "[2]; [11]", "value": 92.6, "unit": "%"}, {"measurement": "viability at 100 µM", "setting": "[2]; [8]", "value": 47.5, "unit": "%"}, {"measurement": "activity at 100 µM", "setting": "[2]; [9]", "value": 38.4, "unit": "%"}, {"measurement": "activity at 100 µM", "setting": "[2]; [10]", "value": 9.54, "unit": "%"}, {"measurement": "activity at 100 µM", "setting": "[2]; [11]", "value": 65, "unit": "%"}, {"measurement": "minimal effective concentration", "setting": "[2]; 24 hr, read-out: huvec.cyto.24hr POD", "value": 5.19, "unit": "µM"}, {"measurement": "minimal effective concentration", "setting": "[2]; 24 hr, read-out: huvec.mito.24hr POD", "value": 4.06, "unit": "µM"}, {"measurement": "minimal effective concentration", "setting": "[2]; 24 hr, read-out: huvec.mitoint.24hr POD", "value": 34.4, "unit": "µM"}, {"measurement": "minimal effective concentration", "setting": "[2]; 24 hr, read-out: huvec.nma.24hr POD", "value": 1.6, "unit": "µM"}, {"measurement": "viability at 0.01 µM", "setting": "[2]; [12]", "value": 88.2, "unit": "%"}, {"measurement": "viability at 0.1 µM", "setting": "[2]; [12]", "value": 84.3, "unit": "%"}, {"measurement": "viability at 1 µM", "setting": "[2]; [12]", "value": 93.2, "unit": "%"}, {"measurement": "viability at 10 µM", "setting": "[2]; [12]", "value": 90.3, "unit": "%"}, {"measurement": "viability at 100 µM", "setting": "[2]; [12]", "value": 84.1, "unit": "%"}, {"measurement": "minimal effective concentration", "setting": "[2]; 24 hrs, read-out: huvec.tc.24hrs POD", "value": 5.19, "unit": "µM"}]}
